Assay results taken from patent publication EP0804408B1, “NOVEL 4-SUBSTITUTED 2,6-DI-TERT-BUTYLPHENOL COMPOUNDS, PHARMACEUTICAL COMPOSITIONS CONTAINING SAME AND PREPARATION METHOD THEREFOR” (priority 1994, dated 1996).

Tested on: macrophages de lignée RAW264.7
Test: Toxicity test on RAW264.7 macrophages (crystal violet and neutral red staining)
Format: cell-based, murins
Conditions: for DO/ml moyenne sur 4 puis ± écart type / Pourcentage de survie par rapport au témoin cellules en milieu seul: 24 h; for hautement toxique jusqu'à: final conclusion
Experimental: La toxicité de AVF1 pour les macrophages de lignée RAW264.7 (ATCC TIB 71) utilisés pour le test iNOS a été déterminée dans l'expérience préliminaire suivante :
Les macrophages de lignée RAW264.7 ont été distribués dans des séries de 4 puits dans une plaque à 96 puits à raison de 1,5 x 10^5/100 µl/ml dans du milieu de culture (D-NEM sans rouge de phénol, Gibco) additionné de 0,2 % d'antibiotique, 1% de L-glutamine et 5% de sérum de veau foetal décomplémenté (produits pour celuture cellulaire Eurobio).
Après 18 heures, différentes concentrations de raison […] de AVF1 ont été ajoutées sous 100 µl de façon à obtenir les concentrations finales de 10^0 à 10^-10%. Après 24 heures de culture supplémentaire, les cellules ont été observées au microscope et colorées selon deux techniques différentes permettant d'obtenir un pourcentage respectivement de cellules adhérentes au plastique (coloration au violet cristal) et de cellules vivantes (coloration au rouge neutre) : • Dans la première technique, les cellules sont lavées avec du PBS + Ca^2+ + Mg^2+ (Gibco) afin d'éliminer les éventuelles cellules mortes flottantes et de maintenir les cellules vivantes sur le plastique. Le colorant (1% de violet cristal, R.A.L. 20% de méthanol, Merck) est ajouté sous 50 µl/puits et laissé 20 minutes à température ambiante. Après plusieurs lavages doux en PBS + Ca^2+ + Mg^2+ , les plaques sont séchées à 37°C et 100 µl de SDS (Sigma, 1% en eau distillée) sont ajoutés par puits. La plaque est laissée 1 heure à température ambiante à l'abri de la lumière pour permettre la dissolution complète du lysat cellulaire. La plaque est ensuite lue au lecteur ELISA (Labsystems) à 550 nm après 15 secondes d'agitation. Le blanc de densité optique (OD) est fait sur une rangée de 8 cupules n'ayant reçu que 50 µl de la solution de violet cristal puis ayant été traitées comme les autres. • Dans la seconde technique, les cellules reçoivent 50 µl de rouge neutre à 0,3% (R.A.L.) qui est pinocyté par les macrophages vivants. Après 2 heures d'incubation, le milieu est enlevé et les cellules sont lavées doucement avec 200 µl de PBS + Ca^2+ + Mg^2+. Les cellules restantes sont ensuite lysées avec 100 µl de SDS et la plaque est mise à 4°C pendant 1 heure pour permettre un relargage complet du colorant. La plaque est ensuite lue au lecteur ELISA à 570 nm avec un filtre de référence de 630 nm après 15 secondes d'agitation. Le blanc de DO est fait sur une colonne de 8 cupules n'ayant reçu que le colorant puis ayant été traitées comme les autres.
Pour la réalisation de cet essai, AVF1 a été préparé de la façon suivante : 1 g a été dissout dans 5 ml de D-MEM sans rouge de phénol. Cette solution à 20% a été stérilisée sur 0,22 µm (Minisart, Sartorius), le pH contrôlé (7,5), aliquotée sous 1 ml et conservée à +4°C. Au moment de l'emploi, cette solution a été diluée afin d'obtenir les concentrations finales désirées.

[1] = ROUGE NEUTRE, second experiment, AVF1 1 10^-7 %
[2] = ROUGE NEUTRE, second experiment, AVF1 1 10^-8 %
[3] = ROUGE NEUTRE, second experiment, AVF1 1 10^-9 %
[4] = ROUGE NEUTRE, second experiment, AVF1 1 10^-10 %
[5] = ROUGE NEUTRE, second experiment, AVF1 5 10^-7 %
[6] = ROUGE NEUTRE, second experiment, AVF1 5 10^-8 %
[7] = ROUGE NEUTRE, second experiment, AVF1 5 10^-9 %
[8] = ROUGE NEUTRE, second experiment, AVF1 5 10^-10 %
[9] = ROUGE NEUTRE, second experiment, AVF1 10^-6 %
[10] = VIOLET CRISTAL, second experiment, AVF1 1 10^-7 %
[11] = VIOLET CRISTAL, second experiment, AVF1 1 10^-8 %
[12] = VIOLET CRISTAL, second experiment, AVF1 1 10^-9 %
[13] = VIOLET CRISTAL, second experiment, AVF1 1 10^-10 %
[14] = VIOLET CRISTAL, second experiment, AVF1 5 10^-7 %
[15] = VIOLET CRISTAL, second experiment, AVF1 5 10^-8 %
[16] = VIOLET CRISTAL, second experiment, AVF1 5 10^-9 %
[17] = VIOLET CRISTAL, second experiment, AVF1 5 10^-10 %
[18] = VIOLET CRISTAL, second experiment, AVF1 10^-6 %

`CC(C)(C)c1cc(C(=O)OCCOCCOCCOCCOCCOCCOCCOCCO)cc(C(C)(C)C)c1O` [AVF1, 3,5-di-t-butyl-4-hydroxybenzoate d'octaoxyéthylèneglycol] was tested, and the “n'est plus toxique à partir de” value (RAW 264.7 macrophages after 24 heures de culture, non-toxic from this concentration downwards) was ≤ 10^-6%, the “DO/ml moyenne sur 4 puis ± écart type” value (ROUGE NEUTRE, AVF1 0,5 %) was 0 DO/ml and the “Pourcentage de survie par rapport au témoin cellules en milieu seul” value (ROUGE NEUTRE, AVF1 0,5 %) was 0%. The “DO/ml moyenne sur 4 puis ± écart type” value (ROUGE NEUTRE, AVF1 1 10^-2 %) was 0 DO/ml, the “Pourcentage de survie par rapport au témoin cellules en milieu seul” value (ROUGE NEUTRE, AVF1 1 10^-2 %) was 6% and the “DO/ml moyenne sur 4 puis ± écart type” value (ROUGE NEUTRE, AVF1 1 10^-3 %) was 0 DO/ml. The “Pourcentage de survie par rapport au témoin cellules en milieu seul” value (ROUGE NEUTRE, AVF1 1 10^-3 %) was 0%, the “DO/ml moyenne sur 4 puis ± écart type” value (ROUGE NEUTRE, AVF1 1 10^-4 %) was 0,010 ± 0,002 DO/ml and the “Pourcentage de survie par rapport au témoin cellules en milieu seul” value (ROUGE NEUTRE, AVF1 1 10^-4 %) was 1%. For the same compound, the “DO/ml moyenne sur 4 puis ± écart type” value (ROUGE NEUTRE, AVF1 1 10^-5 %) was 0,060 ± 0,034 DO/ml, the “Pourcentage de survie par rapport au témoin cellules en milieu seul” value (ROUGE NEUTRE, AVF1 1 10^-5 %) was 41% and the “DO/ml moyenne sur 4 puis ± écart type” value (ROUGE NEUTRE, AVF1 1 %) was 0 DO/ml. The “Pourcentage de survie par rapport au témoin cellules en milieu seul” value (ROUGE NEUTRE, AVF1 1 %) was 0%, the “DO/ml moyenne sur 4 puis ± écart type” value (ROUGE NEUTRE, AVF1 5 10^-3 %) was 0 DO/ml and the “Pourcentage de survie par rapport au témoin cellules en milieu seul” value (ROUGE NEUTRE, AVF1 5 10^-3 %) was 3%. The “DO/ml moyenne sur 4 puis ± écart type” value (ROUGE NEUTRE, AVF1 5 10^-4 %) was 0 DO/ml, the “Pourcentage de survie par rapport au témoin cellules en milieu seul” value (ROUGE NEUTRE, AVF1 5 10^-4 %) was 0% and the “DO/ml moyenne sur 4 puis ± écart type” value (ROUGE NEUTRE, AVF1 5 10^-5 %) was 0,023 ± 0,003 DO/ml. The “Pourcentage de survie par rapport au témoin cellules en milieu seul” value (ROUGE NEUTRE, AVF1 5 10^-5 %) was 16%, the “DO/ml moyenne sur 4 puis ± écart type” value (ROUGE NEUTRE, AVF1 5 10^-6 %) was 0,476 ± 0,034 DO/ml and the “Pourcentage de survie par rapport au témoin cellules en milieu seul” value (ROUGE NEUTRE, AVF1 5 10^-6 %) was 70%. The “DO/ml moyenne sur 4 puis ± écart type” value [1] was 0,605 ± 0,024 DO/ml, the “Pourcentage de survie par rapport au témoin cellules en milieu seul” value [1] was 95% and the “DO/ml moyenne sur 4 puis ± écart type” value [2] was 0,601 ± 0,121 DO/ml. The “Pourcentage de survie par rapport au témoin cellules en milieu seul” value [2] was 95%, the “DO/ml moyenne sur 4 puis ± écart type” value [3] was 0,594 ± 0,083 DO/ml and the “Pourcentage de survie par rapport au témoin cellules en milieu seul” value [3] was 93%. For the same compound, the “DO/ml moyenne sur 4 puis ± écart type” value [4] was 0,609 ± 0,053 DO/ml, the “Pourcentage de survie par rapport au témoin cellules en milieu seul” value [4] was 96% and the “DO/ml moyenne sur 4 puis ± écart type” value [5] was 0,652 ± 0,089 DO/ml. For the same compound, the “Pourcentage de survie par rapport au témoin cellules en milieu seul” value [5] was 100%, the “DO/ml moyenne sur 4 puis ± écart type” value [6] was 0,575 ± 0,040 DO/ml and the “Pourcentage de survie par rapport au témoin cellules en milieu seul” value [6] was 90%. For the same compound, the “DO/ml moyenne sur 4 puis ± écart type” value [7] was 0,545 ± 0,015 DO/ml, the “Pourcentage de survie par rapport au témoin cellules en milieu seul” value [7] was 86% and the “DO/ml moyenne sur 4 puis ± écart type” value [8] was 0,573 ± 0,030 DO/ml. For the same compound, the “Pourcentage de survie par rapport au témoin cellules en milieu seul” value [8] was 90%, the “DO/ml moyenne sur 4 puis ± écart type” value [9] was 0,602 ± 0,059 DO/ml and the “Pourcentage de survie par rapport au témoin cellules en milieu seul” value [9] was 95%. The “DO/ml moyenne sur 4 puis ± écart type” value (VIOLET CRISTAL, AVF1 0,5 %) was 0,118 ± 0,027 DO/ml, the “Pourcentage de survie par rapport au témoin cellules en milieu seul” value (VIOLET CRISTAL, AVF1 0,5 %) was 6% and the “DO/ml moyenne sur 4 puis ± écart type” value (VIOLET CRISTAL, AVF1 1 10^-2 %) was 0,118 ± 0,027 DO/ml. The “Pourcentage de survie par rapport au témoin cellules en milieu seul” value (VIOLET CRISTAL, AVF1 1 10^-2 %) was 6%, the “DO/ml moyenne sur 4 puis ± écart type” value (VIOLET CRISTAL, AVF1 1 10^-3 %) was 0,117 ± 0,027 DO/ml and the “Pourcentage de survie par rapport au témoin cellules en milieu seul” value (VIOLET CRISTAL, AVF1 1 10^-3 %) was 8%. The “DO/ml moyenne sur 4 puis ± écart type” value (VIOLET CRISTAL, AVF1 1 10^-4 %) was 0,180 ± 0,016 DO/ml, the “Pourcentage de survie par rapport au témoin cellules en milieu seul” value (VIOLET CRISTAL, AVF1 1 10^-4 %) was 9% and the “DO/ml moyenne sur 4 puis ± écart type” value (VIOLET CRISTAL, AVF1 1 10^-5 %) was 0,259 ± 0,033 DO/ml. The “Pourcentage de survie par rapport au témoin cellules en milieu seul” value (VIOLET CRISTAL, AVF1 1 10^-5 %) was 12%, the “DO/ml moyenne sur 4 puis ± écart type” value (VIOLET CRISTAL, AVF1 1 %) was 0,172 ± 0,030 DO/ml and the “Pourcentage de survie par rapport au témoin cellules en milieu seul” value (VIOLET CRISTAL, AVF1 1 %) was 8%. The “DO/ml moyenne sur 4 puis ± écart type” value (VIOLET CRISTAL, AVF1 5 10^-3 %) was 0,061 ± 0,017 DO/ml, the “Pourcentage de survie par rapport au témoin cellules en milieu seul” value (VIOLET CRISTAL, AVF1 5 10^-3 %) was 3% and the “DO/ml moyenne sur 4 puis ± écart type” value (VIOLET CRISTAL, AVF1 5 10^-4 %) was 0,156 ± 0,010 DO/ml. The “Pourcentage de survie par rapport au témoin cellules en milieu seul” value (VIOLET CRISTAL, AVF1 5 10^-4 %) was 7%, the “DO/ml moyenne sur 4 puis ± écart type” value (VIOLET CRISTAL, AVF1 5 10^-5 %) was 0,216 ± 0,034 DO/ml and the “Pourcentage de survie par rapport au témoin cellules en milieu seul” value (VIOLET CRISTAL, AVF1 5 10^-5 %) was 10%. The “DO/ml moyenne sur 4 puis ± écart type” value (VIOLET CRISTAL, AVF1 5 10^-6 %) was 1,129 ± 0,069 DO/ml, the “Pourcentage de survie par rapport au témoin cellules en milieu seul” value (VIOLET CRISTAL, AVF1 5 10^-6 %) was 54% and the “DO/ml moyenne sur 4 puis ± écart type” value [10] was 0,960 ± 0,070 DO/ml. The “Pourcentage de survie par rapport au témoin cellules en milieu seul” value [10] was 86%, the “DO/ml moyenne sur 4 puis ± écart type” value [11] was 1,128 ± 0,043 DO/ml and the “Pourcentage de survie par rapport au témoin cellules en milieu seul” value [11] was 100%. For the same compound, the “DO/ml moyenne sur 4 puis ± écart type” value [12] was 1,010 ± 0,059 DO/ml, the “Pourcentage de survie par rapport au témoin cellules en milieu seul” value [12] was 91% and the “DO/ml moyenne sur 4 puis ± écart type” value [13] was 0,934 ± 0,050 DO/ml. The “Pourcentage de survie par rapport au témoin cellules en milieu seul” value [13] was 84%, the “DO/ml moyenne sur 4 puis ± écart type” value [14] was 1,051 ± 0,041 DO/ml and the “Pourcentage de survie par rapport au témoin cellules en milieu seul” value [14] was 94%. For the same compound, the “DO/ml moyenne sur 4 puis ± écart type” value [15] was 1,089 ± 0,051 DO/ml, the “Pourcentage de survie par rapport au témoin cellules en milieu seul” value [15] was 98% and the “DO/ml moyenne sur 4 puis ± écart type” value [16] was 0,970 ± 0,062 DO/ml. The “Pourcentage de survie par rapport au témoin cellules en milieu seul” value [16] was 87%, the “DO/ml moyenne sur 4 puis ± écart type” value [17] was 1,000 ± 0,089 DO/ml and the “Pourcentage de survie par rapport au témoin cellules en milieu seul” value [17] was 90%. The “DO/ml moyenne sur 4 puis ± écart type” value [18] was 0,991 ± 0,078 DO/ml, the “Pourcentage de survie par rapport au témoin cellules en milieu seul” value [18] was 89% and the “toxique jusqu'à la concentration de” value (conclusion of first toxicity experiment (Tableaux III, IV), toxic down to this concentration) was ≥ 5 x 10^-5%. The “hautement toxique jusqu'à” value (conversion of 10^-5 %) was about 100 nM and the “hautement toxique jusqu'à” value (toxic down to this concentration) was ≥ 10^-5%.
